# Assay results published in the supplement of paper PMC10307832.
# Legend:
# Assay in all cases: relative viability (nuclei count vs DMSO), 5 days (fraction); higher = more cells survive
# Neratinib = compound: CCOc1cc2ncc(C#N)c(Nc3ccc(OCc4ccccn4)c(Cl)c3)c2cc1NC(=O)/C=C/CN(C)C [Neratinib]
# How it was run: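 Lung cancer cell lines in 1536-well plates were kept overnight at 37 °C, then pinned with five library-drug doses (not always all listed) spaced by √10 on vehicle-anchored plates. After 5 days without medium change, cells were fixed, permeabilised and Hoechst-stained in one step, imaged at 4×, and nuclei were counted with MetaXpress. Viability is treated-well nuclei divided by vehicle-well nuclei, taken as the median over plates. Plates passed only with control CV below 25% and at least one doubling.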
# Neratinib + Trametinib = compound: CCOc1cc2ncc(C#N)c(Nc3ccc(OCc4ccccn4)c(Cl)c3)c2cc1NC(=O)/C=C/CN(C)C [Neratinib] + CC(=O)Nc1cccc(-n2c(=O)n(C3CC3)c(=O)c3c(Nc4ccc(I)cc4F)n(C)c(=O)c(C)c32)c1 [Trametinib] (partner 0.02 µM)
# How it was run: (§1)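 A single step with final 0.05% Triton X-100, 1% formaldehyde and 1 ug/ml Hoechst fixed the cells and stained nuclei 5 days after treatment. Lung cancer cell lines in 1536-well plates had been treated by pin tool the day after seeding with one drug alone or a fixed anchor-drug dose plus five library-drug doses (not always all listed) in √10 steps, and nuclei were counted on 4× images. Relative viability is the ratio of nuclei in treated wells to nuclei in vehicle wells, taken as the median of duplicate plates.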
# Neratinib + Olaparib = compound: CCOc1cc2ncc(C#N)c(Nc3ccc(OCc4ccccn4)c(Cl)c3)c2cc1NC(=O)/C=C/CN(C)C [Neratinib] + O=C(c1cc(Cc2n[nH]c(=O)c3ccccc23)ccc1F)N1CCN(C(=O)C2CC2)CC1 [Olaparib] (partner 8 µM)
# How it was run: as §1
# Neratinib + Phenformin = compound: CCOc1cc2ncc(C#N)c(Nc3ccc(OCc4ccccn4)c(Cl)c3)c2cc1NC(=O)/C=C/CN(C)C [Neratinib] + N=C(N)NC(=N)NCCc1ccccc1 [Phenformin] (partner 250 µM)
# How it was run: as §1
Cell Line,relative viability (Neratinib; 0.03162 µM),relative viability (Neratinib; 0.1 µM),relative viability (Neratinib; 0.3162 µM),relative viability (Neratinib; 1 µM),relative viability (Neratinib + Trametinib; first compound 0.01 µM),relative viability (Neratinib + Trametinib; first compound 0.03162 µM),relative viability (Neratinib + Trametinib; first compound 0.1 µM),relative viability (Neratinib + Trametinib; first compound 0.3162 µM),relative viability (Neratinib + Trametinib; first compound 1 µM),relative viability (Neratinib + Olaparib; first compound 0.01 µM),relative viability (Neratinib + Olaparib; first compound 0.03162 µM),relative viability (Neratinib + Olaparib; first compound 0.1 µM),relative viability (Neratinib + Olaparib; first compound 0.3162 µM),relative viability (Neratinib + Olaparib; first compound 1 µM),relative viability (Neratinib + Phenformin; first compound 0.01 µM),relative viability (Neratinib + Phenformin; first compound 0.03162 µM),relative viability (Neratinib + Phenformin; first compound 0.1 µM),relative viability (Neratinib + Phenformin; first compound 0.3162 µM),relative viability (Neratinib + Phenformin; first compound 1 µM),relative viability (Neratinib; 0.01 µM)
NCI-H460,1.11,0.865,0.978,0.981,0.233,0.116,0.083,0.154,0.0847,0.428,0.43,0.383,0.415,0.419,0.58,0.675,0.414,0.491,0.341,
NCI-H2228,1.21,0.973,0.858,0.223,0.457,0.93,0.359,0.58,0.132,0.943,0.576,0.589,0.425,0.199,0.334,0.331,0.268,0.236,0.122,
HCC-44,1.01,1.01,0.943,1.06,1.14,1.08,1.11,1.08,1.09,1.04,1.03,0.899,0.94,0.979,0.22,0.228,0.213,0.157,0.245,1.06
NCI-H520,1.07,0.937,0.922,0.649,0.642,0.804,,0.605,0.421,0.303,0.321,,0.349,0.194,0.599,0.78,0.53,0.496,0.287,1.11
NCI-H1993,0.837,0.719,0.685,0.731,0.445,0.505,0.512,0.419,0.54,1.33,1.06,0.996,0.704,,0.365,0.523,0.533,0.626,0.567,1.03
SW 900,1.05,0.772,0.94,0.94,0.866,0.906,0.527,0.729,0.467,0.975,0.826,0.714,0.662,0.607,0.537,0.658,,0.609,0.309,
NCI-H441,1.15,0.89,,0.529,0.509,0.428,0.356,0.332,0.245,0.57,0.438,0.488,0.48,0.417,1.04,0.82,0.94,0.705,0.45,1.32
EKVX,0.976,0.812,0.43,0.25,0.353,0.334,0.315,0.139,0.162,0.86,,0.624,0.341,0.203,0.241,0.244,0.226,0.206,0.132,1.04
NCI-H1734,1.05,0.914,0.929,0.734,0.781,0.788,0.587,,0.503,0.76,0.694,0.545,0.525,0.457,0.428,0.429,0.382,0.412,0.32,1.05
NCI-H650,1.04,1.12,0.662,0.877,0.968,1.03,1.16,,0.937,0.39,0.434,0.372,0.318,0.392,0.509,0.505,0.493,0.392,0.423,1.02
EPLC-272H,0.869,0.841,0.666,0.358,0.278,0.321,0.253,0.248,0.22,0.645,0.643,0.558,0.512,0.253,,0.309,0.317,0.235,0.157,0.867
NCI-H647,1,0.931,,0.483,0.439,0.543,0.366,0.466,0.229,0.426,0.518,0.4,0.294,0.263,0.574,,0.398,0.368,0.113,1.07
NCI-H1792,1.19,0.808,,0.813,0.476,0.663,0.423,0.39,0.26,0.0369,0.65,0.376,0.257,0.174,0.298,0.2,0.292,0.261,0.26,1.33
NCI-H2009,1.05,0.989,0.927,0.96,0.301,0.262,0.307,0.266,0.179,0.691,0.752,0.65,0.689,0.732,0.482,0.509,0.484,0.389,0.303,1.01
NCI-H661,0.999,0.808,0.57,0.448,0.63,0.568,0.447,0.352,0.276,0.838,0.743,0.555,0.605,0.534,0.274,0.242,0.285,0.247,0.251,1.1
NCI-H1793,1,0.682,0.749,0.527,0.454,0.509,0.407,0.361,0.253,1,0.855,0.551,0.345,0.217,0.392,0.516,0.281,0.273,0.255,1.11
NCI-H1395,0.948,0.992,0.917,0.654,1.18,1.18,1.11,1.11,0.65,,0.491,0.449,0.469,0.413,0.461,0.484,0.462,0.428,0.388,0.994
